Reference: patent US12104201B2, “Engineered gyri-like mutein aptamers, and related methods” (CROSSLIFE TECHNOLOGIES INC., priority 2019, dated 2024)

What was measured:
[1] = target: T1, L. innocua LIN2189 variant E157A (SEQ ID NO:28) (Listeria innocua, UniProt Q929T5, E157A); format: binding; settings: FAM
T1 construct: listing organism Escherichia coli is only the host

[2] = target: C. tepidium CTR107 variant, weakest FAM-binding aptamer from phage display library (Chlorobaculum tepidum, UniProt Q8KFZ1); experiment: Fluorescence-binding assay, Kd by nonlinear regression fit to the Hill equation
[3] = target: C. tepidium CTR107 variant, highest affinity FAM-binding aptamer from phage display library (Chlorobaculum tepidum, UniProt Q8KFZ1); experiment: as above
[4] = target: T2, SAV2435 WT (S. aureus Gyrl-like protein, wild type, SEQ ID NO:2) (Staphylococcus aureus, UniProt A0A0H3K0Y5); format: binding
T2 construct: listing organism Escherichia coli is only the host

FAM antibody = experiment: Fluorescence-binding assay, Kd by nonlinear regression fit to the Hill equation
Source text: (§1) Fluorescence Binding Assay

[5] = target: T3, LIN2189 WT (L. innocua Gyrl-like protein, wild type, SEQ ID NO:6) (Listeria innocua, UniProt Q929T5); experiment: Fluorescence binding assay (enhancement/quenching of dye fluorescence); settings: 1 μM FAM, saturating protein
T3 construct: recombinant, purified
T3 sequence (Q929T5 with tags, fused parts or gaps): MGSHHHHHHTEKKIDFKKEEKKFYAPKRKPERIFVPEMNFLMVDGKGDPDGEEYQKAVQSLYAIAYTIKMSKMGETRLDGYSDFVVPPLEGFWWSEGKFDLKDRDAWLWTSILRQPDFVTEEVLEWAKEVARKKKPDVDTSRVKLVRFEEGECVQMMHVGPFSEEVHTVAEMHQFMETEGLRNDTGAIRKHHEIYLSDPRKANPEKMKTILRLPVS
Procedure: as §1
CTR107 when added at 10 μM induced a 10-fold increase in DFHBI fluorescence (FIG. 6A).
Malachite Green fluoresces in the far-red regions when stimulated by binding aptamers, therefore we monitored its fluorescence emission at 665-720 nm after exciting at 635 nm.
Thioflavin T is a benzothiazole dye that has also been used in many fluorescence applications. […] The Corn aptamer is able to bind to two Thioflavin T molecules at a homodimer interface formed by G-quadruplexes. We tested whether Gyrl-like proteins could function as fluorescence enhancement aptamers of Thioflavin T. Thioflavin T has excitation and emission maxima of […], respectively. We probed the fluorescence enhancing properties of SAV2435, CTR107 and LIN2189 variants on Thioflavin T (FIG. 8). […] All other variants display either a small 4-6 fold increase or no increase in Thioflavin T fluorescence.

[6] = target: T4, CTR107 WT (C. tepidium Gyrl-like protein, wild type, SEQ ID NO:4) (Chlorobaculum tepidum, UniProt Q8KFZ1); experiment: biochemical; format: binding
T4 construct: begins […]
T4 sequence (Q8KFZ1 entry or part of it): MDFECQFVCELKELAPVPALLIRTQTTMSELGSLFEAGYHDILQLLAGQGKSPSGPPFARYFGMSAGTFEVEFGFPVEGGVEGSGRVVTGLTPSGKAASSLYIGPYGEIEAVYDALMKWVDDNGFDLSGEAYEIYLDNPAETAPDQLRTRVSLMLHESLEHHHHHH

[7] = target: C. tepidium CTR107 variant E36R (SEQ ID NO:18) (Chlorobaculum tepidum, UniProt Q8KFZ1, E36R); format: binding; settings: FAM
Chain of C. tepidium CTR107 variant E36R (SEQ ID NO:18) (Q8KFZ1 entry or part of it E36R): as the sequence (Q8KFZ1 entry or part of it) above, with E36R counted along it

[8] = target: T5, C. tepidium CTR107 variant Y106W (SEQ ID NO:20) (Chlorobaculum tepidum, UniProt Q8KFZ1, Y106W); experiment: biochemical; format: binding
T5 sequence (Q8KFZ1 with tags, fused parts or gaps Y106W): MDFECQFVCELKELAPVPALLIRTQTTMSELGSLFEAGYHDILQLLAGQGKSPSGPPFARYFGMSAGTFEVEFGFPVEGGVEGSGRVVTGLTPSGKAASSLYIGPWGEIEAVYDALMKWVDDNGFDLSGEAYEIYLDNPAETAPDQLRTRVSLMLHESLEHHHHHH

[9] = target: T6, C. tepidium CTR107 variant E133Q (SEQ ID NO:22) (Chlorobaculum tepidum, UniProt Q8KFZ1, E133Q); format: binding
T6 sequence (Q8KFZ1 with tags, fused parts or gaps E133Q): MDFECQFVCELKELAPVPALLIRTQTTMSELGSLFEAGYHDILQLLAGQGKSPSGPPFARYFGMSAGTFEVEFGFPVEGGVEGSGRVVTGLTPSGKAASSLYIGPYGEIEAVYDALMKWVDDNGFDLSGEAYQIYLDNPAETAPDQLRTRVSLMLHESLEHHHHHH

[10] = target: S. aureus SAV2435 variant N27W (SEQ ID NO:8) (Staphylococcus aureus, UniProt A0A0H3K0Y5); format: binding; settings: Acridine Orange
[11] = target: S. aureus SAV2435 variant Y137W (SEQ ID NO:16) (Staphylococcus aureus, UniProt A0A0H3K0Y5, V105W/Y137W); format: binding; settings: Acridine Orange
[12] = target: S. aureus SAV2435 variant E135Q (SEQ ID NO:14) (Staphylococcus aureus, UniProt A0A0H3K0Y5, E135Q/V105W); format: binding; settings: 500 nM Acridine Orange
[13] = target: S. aureus SAV2435 variant P106W (SEQ ID NO:12) (Staphylococcus aureus, UniProt A0A0H3K0Y5, P106W); format: binding; settings: 500 nM Acridine Orange
[14] = target: S. aureus SAV2435 variant V105W (SEQ ID NO:10) (Staphylococcus aureus, UniProt A0A0H3K0Y5, V105W); format: binding; settings: 500 nM Acridine Orange
[15] = tested on: bacterial growth; ampicillin pre-incubated with LIN2189 (LIN2189 DUB); experiment: Ex vivo drug-metabolizing aptamer screening (bacterial growth in ampicillin pre-incubated with protein)
[16] = tested on: E. coli expressing SAV2435 WT; experiment: In vivo drug-binding aptamer screening (ampicillin resistance); settings: E. coli growth, OD600, 24 hrs
[17] = tested on: E. coli expressing CTR107 WT; experiment: as above; settings: E. coli growth, OD600, 24 hrs
[18] = tested on: E. coli expressing LIN2189 DUB; experiment: as above; settings: E. coli growth, OD600, 24 hrs
[19] = UV fluorescence quenching of Daunorubicin; settings: 5 μM daunorubicin; saturating protein

T1 sequence (Q929T5 entry or part of it E157A): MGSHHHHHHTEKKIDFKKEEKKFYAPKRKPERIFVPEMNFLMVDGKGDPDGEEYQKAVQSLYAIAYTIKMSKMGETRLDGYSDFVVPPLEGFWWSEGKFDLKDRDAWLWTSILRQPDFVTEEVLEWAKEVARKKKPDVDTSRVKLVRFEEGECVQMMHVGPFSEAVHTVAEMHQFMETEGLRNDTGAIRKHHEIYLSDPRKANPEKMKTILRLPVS

5(6)-Carboxyfluorescein [FAM]
changes in fluorescence quenching compared to LIN2189 WT [1]: no changes
Kd [2]: 3 nM
affinity relative to FAM antibody [3]: 11 fold
effect on fluorescence ([4]; 1 μM FAM, saturating protein): no effect
Kd (FAM antibody): 8 nM
decrease in fluorescence [5]: 2 fold
decrease in fluorescence ([6]; 1 μM FAM, saturating protein): 6 fold
fluorescence quenching [7]: loss of quenching properties
fluorescence quenching ([8]; FAM): loss of quenching properties
fluorescence quenching ([9]; FAM): loss of quenching properties

CN(C)c1ccc2cc3ccc(N(C)C)cc3nc2c1 [Acridine Orange]
quenching effect on fluorescence ([4]; Acridine Orange): 2-3 fold
increase in fluorescence intensity ([6]; 500 nM Acridine Orange): doubled
quenching effect on fluorescence [10]: 2-3 fold
quenching effect on fluorescence [11]: 2-3 fold
increase in fluorescence intensity [12]: doubled
quenching effect on fluorescence ([8]; Acridine Orange): 2-3 fold
increase in fluorescence intensity ([9]; 500 nM Acridine Orange): doubled
increase in fluorescence intensity [13]: doubled
increase in fluorescence intensity [14]: doubled

CC1(C)S[C@@H]2[C@H](NC(=O)[C@H](N)c3ccccc3)C(=O)N2[C@H]1C(=O)O [Ampicillin]
resistance up to ampicillin concentration [15]: up to 500 μg/ml
susceptibility to ampicillin [16]: susceptible
partial resistance up to ampicillin concentration [17]: up to 100 μg/ml
highest resistance at ampicillin concentration [18]: 100 µg/mL

B1: CTR107 Y106W: CTR107 variant aptamer, SEQ ID NO:20 (protein, listed as Escherichia coli)
chain: MDFECQFVCELKELAPVPALLIRTQTTMSELGSLFEAGYHDILQLLAGQGKSPSGPPFARYFGMSAGTFEVEFGFPVEGGVEGSGRVVTGLTPSGKAASSLYIGPWGEIEAVYDALMKWVDDNGFDLSGEAYEIYLDNPAETAPDQLRTRVSLMLHESLEHHHHHH
UV fluorescence of Daunorubicin with protein [19]: complete shut off of fluorescence
